Data published in ChEMBL document CHEMBL1143418, “Colistin methanesulfonate against multidrug-resistant Acinetobacter baumannii in an in vitro pharmacodynamic model” (2007).
Converted amounts (≈) assume the structure as drawn. The source made the active and inactive calls. No cut-off for these calls is given here.

Legend:
[1] = test system: Acinetobacter baumannii; assay: Antibacterial activity against multidrug-resistant Acinetobacter baumannii 06-74 isolate by CLSI microdilution test; assay type: functional
[2] = test system: Acinetobacter baumannii; assay: Antibacterial activity against multidrug-resistant Acinetobacter baumannii 06-74 isolate assessed as reduction in bacterial load at 50 ug/ml administered as continuous infusion in vitro pharmacodynamic model after 3 to 4 hrs by time kill experiment; assay type: functional
[3] = test system: Acinetobacter baumannii; assay: Antibacterial activity against multidrug-resistant Acinetobacter baumannii 06-74 isolate assessed as regrowth bacterial load at 50 ug/ml administered as continuous infusion in vitro pharmacodynamic model after 3 to 4 hrs by time kill experiment; assay type: functional
[4] = test system: Acinetobacter baumannii; assay: Antibacterial activity against multidrug-resistant Acinetobacter baumannii 06-74 isolate by time kill experiment; assay type: functional, organism-based
[5] = test system: Acinetobacter baumannii; assay: (§1) Antibacterial activity against multidrug-resistant Acinetobacter baumannii 06-74 isolate assessed as prevention of bacterial regrowth at 24 ug/ml first dose and 24 ug/ml of second dose administered 12 hrs after first dose as bolus dose in in vitro pharmacodynamic model vessel measured 2 to 3 hrs after last dose by time kill experiment; assay type: functional, organism-based
[6] = test system: Acinetobacter baumannii; assay: Antibacterial activity against 24 ug/mL bolus dose Colistin methanesulfonate exposed multidrug-resistant Acinetobacter baumannii 06-74 isolate by CLSI microdilution test; assay type: functional, organism-based
[7] = test system: Acinetobacter baumannii; assay: Antibacterial activity against 3 ug/mL Colistin methanesulfonate exposed multidrug-resistant Acinetobacter baumannii 06-74 isolate by CLSI microdilution test; assay type: functional, organism-based
[8] = test system: Acinetobacter baumannii; assay: Antibacterial activity against 6 ug/mL Colistin methanesulfonate exposed multidrug-resistant Acinetobacter baumannii 06-74 isolate by CLSI microdilution test; assay type: functional, organism-based
[9] = test system: Acinetobacter baumannii; assay: Antibacterial activity against 12 ug/mL Colistin methanesulfonate exposed multidrug-resistant Acinetobacter baumannii 06-74 isolate by CLSI microdilution test; assay type: functional, organism-based
[10] = test system: Acinetobacter baumannii; assay: Antibacterial activity against 24 ug/mL Colistin methanesulfonate exposed multidrug-resistant Acinetobacter baumannii 06-74 isolate by CLSI microdilution test; assay type: functional, organism-based
[11] = test system: Acinetobacter baumannii; assay: Antibacterial activity against multidrug-resistant Acinetobacter baumannii 06-74 isolate assessed as reduction in bacterial load at 3 ug/ml administered as bolus dose after 2 to 3 hrs by time kill experiment; assay type: functional, organism-based
[12] = test system: Acinetobacter baumannii; assay: Antibacterial activity against multidrug-resistant Acinetobacter baumannii 06-74 isolate assessed as reduction in bacterial load at 6 ug/ml administered as bolus dose after 2 to 3 hrs by time kill experiment; assay type: functional, organism-based
[13] = test system: Acinetobacter baumannii; assay: Antibacterial activity against multidrug-resistant Acinetobacter baumannii 06-74 isolate assessed as reduction in bacterial load at 12 ug/ml administered as bolus dose after 2 to 3 hrs by time kill experiment; assay type: functional, organism-based
[14] = test system: Acinetobacter baumannii; assay: Antibacterial activity against multidrug-resistant Acinetobacter baumannii 06-74 isolate assessed as reduction in bacterial load at 24 ug/ml administered as bolus dose after 2 to 3 hrs by time kill experiment; assay type: functional, organism-based
[15] = test system: Acinetobacter baumannii; assay: Antibacterial activity against multidrug-resistant Acinetobacter baumannii 06-74 isolate assessed as regrowth bacterial load at 3 ug/ml administered as bolus dose after 24 hrs by time kill experiment; assay type: functional, organism-based
[16] = test system: Acinetobacter baumannii; assay: Antibacterial activity against multidrug-resistant Acinetobacter baumannii 06-74 isolate assessed as regrowth bacterial load at 6 ug/ml administered as bolus dose after 24 hrs by time kill experiment; assay type: functional, organism-based
[17] = test system: Acinetobacter baumannii; assay: Antibacterial activity against multidrug-resistant Acinetobacter baumannii 06-74 isolate assessed as regrowth bacterial load at 12 ug/ml administered as bolus dose after 24 hrs by time kill experiment; assay type: functional, organism-based
[18] = test system: Acinetobacter baumannii; assay: Antibacterial activity against multidrug-resistant Acinetobacter baumannii 06-74 isolate assessed as regrowth bacterial load at 24 ug/ml administered as bolus dose after 24 hrs by time kill experiment; assay type: functional, organism-based
[19] = test system: Acinetobacter baumannii; assay: as §1, with “as reduction in” for “as prevention of”, “bacterial load” for “bacterial regrowth”, “at 3” for “at 24”; assay type: functional, organism-based
[20] = test system: Acinetobacter baumannii; assay: as §1, with “as reduction in” for “as prevention of”, “bacterial load” for “bacterial regrowth”, “at 6” for “at 24”; assay type: functional, organism-based
[21] = test system: Acinetobacter baumannii; assay: as §1, with “as reduction in” for “as prevention of”, “bacterial load” for “bacterial regrowth”, “at 12” for “at 24”; assay type: functional, organism-based
[22] = test system: Acinetobacter baumannii; assay: as §1, with “reduction in” for “prevention of”, “load” for “regrowth”; assay type: functional, organism-based
[23] = test system: Acinetobacter baumannii; assay: as §1, with “at 3” for “at 24”; assay type: functional, organism-based
[24] = test system: Acinetobacter baumannii; assay: as §1, with “at 6” for “at 24”; assay type: functional, organism-based
[25] = test system: Acinetobacter baumannii; assay: as §1, with “at 12” for “at 24”; assay type: functional, organism-based

## NCC[C@H](O)C(=O)N[C@@H]1C[C@H](N)[C@@H](O[C@H]2O[C@H](CN)[C@@H](O)[C@H](O)[C@H]2O)[C@H](O)[C@H]1O[C@H]1O[C@H](CO)[C@@H](O)[C@H](N)[C@H]1O [AMIKACIN]
[1]
  MIC: ≤ 2 µg/mL

## CC1(C)S[C@@H]2[C@H](NC(=O)[C@H](N)c3ccccc3)C(=O)N2[C@H]1C(=O)O [AMPICILLIN]
[1]
  MIC: ≥ 32 µg/mL

## CC(C)(O/N=C(\C(=O)N[C@@H]1C(=O)N2C(C(=O)[O-])=C(C[n+]3ccccc3)CS[C@H]12)c1csc(N)n1)C(=O)O [CEFTAZIDIME]
[2]
  log10CFU/ml: 3
[3]
  log10CFU/ml: 6.5
[1]
  MIC: ≥ 64 µg/mL

## C[C@@H](O)[C@H]1C(=O)N2C(C(=O)O)=C(SCCNC=N)C[C@H]12 [IMIPENEM ANHYDROUS]
[1]
  MIC: ≤ 1 µg/mL

## C[C@H]1COc2c(N3CCN(C)CC3)c(F)cc3c(=O)c(C(=O)O)cn1c23.C[C@H]1COc2c(N3CCN(C)CC3)c(F)cc3c(=O)c(C(=O)O)cn1c23.O [LEVOFLOXACIN]
[1]
  MIC: ≥ 8 µg/mL

## C[C@@H](O)[C@H]1C(=O)N2C(C(=O)O)=C(S[C@@H]3CN[C@H](C(=O)N(C)C)C3)[C@H](C)[C@H]12 [MEROPENEM]
[1]
  MIC: 1 µg/mL (≈ 2.61 µM)

## O=C1CN(/N=C/c2ccc([N+](=O)[O-])o2)C(=O)N1 [NITROFURANTOIN]
[1]
  MIC: ≥ 512 µg/mL

## COLISTIMETHATE SODIUM
[4]
  MIC: > 2050 µg/mL
[1]
  MIC: 2 µg/mL

## COLISTIN
[5]
  Activity: inactive
[2]
  Activity: inactive
[3]
  Activity: inactive
[6]
  MIC: > 128 µg/mL
[7]
  MIC: 64 µg/mL
[8]
  MIC: > 64 µg/mL
[9]
  MIC: 128 µg/mL
[10]
  MIC: > 32 µg/mL
[11]
  log10CFU/ml: 3
[12]
  log10CFU/ml: 3
[13]
  log10CFU/ml: 3
[14]
  log10CFU/ml: 3
[15]
  log10CFU/ml: 7
[16]
  log10CFU/ml: 7
[17]
  log10CFU/ml: 7
[18]
  log10CFU/ml: 7
[19]
  Activity: inactive
[20]
  Activity: inactive
[21]
  Activity: inactive
[22]
  Activity: inactive
[23]
  Activity: inactive
[24]
  Activity: inactive
[25]
  Activity: inactive

## GENTAMICIN
[1]
  MIC: > 16 µg/mL
